The values below come from patent US20150343016A1, “CHEMICAL ENTITIES AND THERAPEUTIC USES THEREOF” (The Regents of the University of Colorado, a body corporate, priority 2010, published 2015).

For one assay, the system named is FaDu cells. Briefly: MTT assay, Bouvardin with ionizing radiation, FaDu (same-day treatment). It is filed as cell-based, human. The method, then: “Combination Index” computation. Combination Indices were calculated using CalcuSyn software (Biosoft), which uses the method of Chou and Talalay. This method first computes drug-induced effect using the Hill Equation: where E is the measured effect; C is the drug concentration; Emax is the full range of drug effect, usually at or near 100%; IC50 is the drug concentration producing the median effect of 50%; and n is the curve shape parameter describing the steepness of the concentration-effect relationship. The Chou and Talalay method then linearizes the Hill Equation by logarithmic transformation as: where fu is the fraction of cells left unaffected after drug exposure, fa is the fraction of cells affected by the exposure, C is the drug concentration used, Cm is the concentration to achieve the median effect, and n is the curve shape parameter. Cm and n are equivalent to IC50 and n, respectively, in the Hill Equation. The values of n (obtained from the slope), nlog(Cm) (obtained from the absolute value of the intercept), and, therefore, Cm are obtained by plotting log(fu−1−1) versus log(C). These numbers are then used to compute the Combination Index (CI) according to the formula: CI=(D)1/(Dx)1+(D)2/(Dx)2 (26). (Dx)1 and (Dx)2 are the doses required to achieve a given effect level for each treatment, i.e. a specified value of Fraction Affected or Fa. (D)1 and (D)2 are the doses of each treatment in a given combination which gives the same Fa.
For FIG. 19 MTT assays were used to determine the effect of Bouvardin (concentrations in uM) in combination with ionizing radiation (in Gy). The data from same-day treatment of IR and Bouvardin are shown, for comparison with taxol-Bouvardin combination that were also applied on the same day. In general, CI values were lower for FaDu cells than for Det562 cells in two separate experiments (only one set is shown). On Det562 cells, CI values were about 1 for most combinations. CI value for Det562 cells at 0.001 uM/1Gy and at >0.06 uM are not included in the graph because the values are >10 and would have made smaller values harder to see. On FaDu cells, CI values were below 1 at concentrations of 0.03 or lower, were about 1 for 0.06 uM drug, and were over 1 at higher concentrations.
The growth inhibitory effects of Bouvardin with ionizing radiation (IR) were evaluated using a modified tetrazolium salt (MTT) assay. In the MTT assay, 1,000 to 2,000 viable cells were plated in 100 uL of growth medium in 96-well plates (Corning, Ithaca, N.Y.). Following an overnight incubation, drug was added in varying concentrations and the plates were irradiated on the same day (co-treatment) or 24 hr later (pre-treatment) and incubated for 6 to 7 days. The tetrazolium salt was added at a concentration of 0.4 mg/mL to each well following the 6- to 7-day treatment. The plates were incubated with the salt for 4 hours at 37° C. At 4 hours, the medium was aspirated off, leaving the dark blue formazan product at the bottom of the wells. The reduced MTT product was solubilized by adding […] of 0.2 N HCl in 75% isopropanol, 23% MilliQ water to each well. Thorough mixing was done using a Titertek multichannel pipetman. The absorbency of each well was measured using an automated plate reader (Molecular Devices, Sunnyvale, Calif.). All experiments were done in triplicate.
Background: Tetrazolium dyes change colour on reduction, which living cells bring about.

A further assay deals with Det562 cells. Briefly: CellTiter-Glo Luminescent Cell Viability Assay, Bouvardin with Taxol, Det562. The format is cell-based, human. The conditions noted are these: Det562. A general note: Cellular ATP, detected with luciferase, serves as a proxy for viable cell number.
The subject of another assay is Drosophila. Briefly: Sensitizing flies to ionizing radiation (FIG. 7). The format is in vivo. From the text:
Bouvardin derivatives are depicted in FIG. 4 as a generic Formula III, with the specific derivative used in this example having R1=COOCH3, R2=OCH3, R3=H, R4=Boc, R5=CH3.
Feeding stage 3rd instar larvae were irradiated as previously described (2). Briefly, 120 hr old larvae were rinsed to remove food and passed through sizing sieves to obtain animals of uniform size. Larvae were placed in a Petri dish and irradiated using a TORREX X-ray generator, set at 115 kV and 5 mA (producing 2.4 Rads/sec or 1.44 Gy/min) Irradiated larvae were then cultured on cornmeal-agar media (2) containing drug or DMSO carrier. In all experiments using human cells, cells in 96-well plates were irradiated with a RS2000 Biological Irradiator (Rad Source Technologies, Inc.) delivering 1 Gy/min.

Procedure for Det562 cells: “Combination Index” computation. Combination Indices were calculated using CalcuSyn software (Biosoft), which uses the method of Chou and Talalay. This method first computes drug-induced effect using the Hill Equation: where E is the measured effect; C is the drug concentration; Emax is the full range of drug effect, usually at or near 100%; IC50 is the drug concentration producing the median effect of 50%; and n is the curve shape parameter describing the steepness of the concentration-effect relationship. The Chou and Talalay method then linearizes the Hill Equation by logarithmic transformation as: where fu is the fraction of cells left unaffected after drug exposure, fa is the fraction of cells affected by the exposure, C is the drug concentration used, Cm is the concentration to achieve the median effect, and n is the curve shape parameter. Cm and n are equivalent to IC50 and n, respectively, in the Hill Equation. The values of n (obtained from the slope), nlog(Cm) (obtained from the absolute value of the intercept), and, therefore, Cm are obtained by plotting log(fu−1−1) versus log(C). […]
The growth inhibitory effects of Bouvardin with Taxol were evaluated using CellTiter-Glo® Luminescent Cell Viability Assay (Promega G7570). […] Luminescence of each well was measured using an automated plate reader.

In the case of `COc1ccc(C[C@H]2C(=O)N[C@H](C)C(=O)N(C)[C@@H]3C(=O)N(C)[C@@H](Cc4ccc(O)c(c4)Oc4ccc(cc4)[C@H]3O)C(=O)N[C@@H](C)C(=O)N[C@H](C)C(=O)N2C)cc1` (stereo in doubt) [Bouvardin, bouvardin], the “Bouvardin concentrations at which synergy was seen when combined with radiation” value with FaDu cells (Det562 and FaDu (FIG. 19)) is “lower than 0.06 μM”. For the same compound, the “interaction of Bouvardin with IR” value in the assay on FaDu cells (FaDu) is “a wide range of effects, synergistic to antagonistic”. Also, the “CI values, Bouvardin with IR” value in the assay on FaDu cells (FaDu, 0.06 uM drug) is “about 1”; in the assay with FaDu cells (FaDu, concentrations higher than 0.06 uM), “over 1”; in the assay with FaDu cells (FaDu, concentrations of 0.03 or lower), “below 1”. Besides, the “interaction of Bouvardin with Taxol” value with Det562 cells is recorded as “synergy with Taxol over a wide range of concentrations”. In the assay on Drosophila, the “observed effect of drug with radiation versus additive effect” value is “exceeds additive effect of drug and radiation”.
